For 23 molecules, IC50 results are on record in patent publication US20240109893A1, “PREPARATION AND APPLICATION METHOD OF HETEROCYCLIC COMPOUNDS AS KRAS INHIBITOR” (SHANGHAI KECHOW PHARMA, INC., priority 2020, published 2024).

The first assay has as its system H358 cells. Nature of the assay: Cell activity experiment: activity test of H358 cells (MTT, 5 days). In kind it is cell-based. Conditions: 5 days incubation, absorbance 492 nm. How it is done:
Example: Cell Activity Experiment
1. Cells: H358 purchased from Shanghai EK-Bioscience Biotechnology Co., Ltd.
2. Reagents: RPMI 1640 medium, Tryple, MTT (5 mg/mL), DMSO, and DPBS.
3. Instruments: an incubator at 37° C. and 5% CO2, a UTRAO microplate reader, a biosafety cabinet, a cell counting plate, and an Optec optical microscope.
4. Experimental consumables: 96-well plate Item No.: 3599, and 96-well round-bottomed dispensing plate.
Experimental Steps of Activity Test of H358 Cells:
1. Plating: Cells in the logarithmic growth phase were digested with Tryple and terminated with a fresh medium, and the cells were counted; and the cell concentration was adjusted to 55555 cells/mL with a fresh medium, wherein 90 μL was added to each well, and those on edges were filled with sterile DPBS.
2. The plate was incubated in the incubator at 37° C. and 5% CO2 for 24 h, so that the cells cover the bottom of the well by about 50%.
3. Drug preparation for experimental group: The drug was dissolved in DMSO to prepare a 20 mmol/L stock solution; the stock solution was further diluted with DMSO to 2 mmol/L, which was serially 3-fold diluted to form an […]-concentration gradient, resulting in a 200× serial compound solution; 10 μL of the serial compound solution was taken and added to 190 μLμL of RPMI1640 medium to obtain a 10× serial compound solution; and 10 μL of the 10× compound solution was taken and added to 90 μL 96-well cell culture plate, with three replicates per grade. The concentration gradient of the compound in the 96-well cell culture plate was […], 1.524158 nM, 4.572474 nM, 13.717420 nM, 41.152260 nM, 123.456800 nM, 370.370400 nM, 1111.111000 nM, 3333.333000 nM, and 10000.000000 nM, with 100 μL per well, and the final concentration of DMSO was 0.5%.
The control group contained the same volume of solvent as the experimental group and was diluted with a complete medium, with 100 μL per well.
4. Incubation was carried out for 5 days in an incubator with 5% CO2 at 37° C.
5. After 5 days, 10 μL of an MTT solution (5 mg/mL) was added to each well, and the culture was continued for 4 h.
6. The culture was terminated, and the culture solution was carefully sucked out of the well.
7. 150 μL of dimethyl sulfoxide (DMSO) was added to each of the null wells in the experimental group and the control group; and after shaking at a medium speed for 10 s, the crystal was fully dissolved, and the optical absorbance value thereof was measured at a wavelength of 492 nm.
Turning to `C=CC(=O)N1CCN(c2nc(OC[C@@H]3CCCN3C)nc3c(F)c(-c4cccc5c4CCCC5)c(Cl)cc23)C[C@@H]1CC#N` [Example 74], the IC50 (in general, the concentration at which inhibition is half-maximal) is 25 nM.

Staying with this assay, now noted: Homo sapiens, NCI-H358, 120 h, 5 days incubation, absorbance 492 nm.
With `C=C(F)C(=O)N1CCN(c2nc(OC[C@@H]3CCCN3C)nc3c(F)c(-c4cccc5c4SCCC5)ncc23)C[C@@H]1CC#N` [Example 53, 2-((S)-4-(8-fluoro-2-(((S)-1-methylpyrrolidin-2-yl)methoxy)-7-(thiochroman-8-yl)pyridino[4,3-d]pyrimidin-4-yl)-1-(2-fluoroacryloyl)piperazin-2-yl)acetonitrile], half-maximal inhibition (IC50) required 180 nM. `C=CC(=O)N1CCN(c2nc(OC[C@@H]3CCCN3C)nc3c(F)c(-c4ccc(F)c5c4SCCC5)ncc23)C[C@@H]1CC#N` [Example 54, 2-((S)-1-acryloyl-4-(8-fluoro-7-(5-fluorothiochroman-8-yl)-2-(((S)-1-methylpyrrolidin-2-yl)methoxy)pyridino[4,3-d]pyrimidin-4-yl)piperazin-2-yl)acetonitrile] had an IC50 of 70 nM. In the case of `C=C(F)C(=O)N1CCN(c2nc(OC[C@@H]3CCCN3C)nc3c(F)c(-c4cccc5c4C4CC4C5)ncc23)C[C@@H]1CC#N` (stereo partly drawn) [Example 55, 2-((2S)-4-(8-fluoro-2-(((S)-1-methylpyrrolidin-2-yl)methoxy)-7-(1,1a,6,6a-tetrahydrocyclopropa[a]inden-2-yl)pyridino[4,3-d]pyrimidin-4-yl)-1-(2-fluoroacryloyl)piperazin-2-yl)acetonitrile], the half-maximal inhibitory concentration (IC50) was 160 nM. `C=CC(=O)N1CCN(c2nc(OC[C@@H]3CCCN3C)nc3c(F)c(-c4cccc5c4[C@H]4C[C@H]4C5)ncc23)C[C@@H]1CC#N` [Example 56, 2-((S)-1-acryloyl-4-(8-fluoro-2-(((S)-1-methylpyrrolidin-2-yl)methoxy)-7-((1aS,6aS)-1,1a,6,6a-tetrahydrocyclopropa[a]inden-2-yl)pyridino[4,3-d]pyrimidin-4-yl)piperazin-2-yl)acetonitrile] had an IC50 of 2.2 nM. Same read-out and setting: to `C=C(F)C(=O)N1CCN(c2nc(OC[C@@H]3CCCN3C)nc3c(F)c(-c4cccc5c4[C@H]4C[C@H]4C5)ncc23)C[C@@H]1CC#N` [Example 57, 2-((S)-4-(8-fluoro-2-(((S)-1-methylpyrrolidin-2-yl)methoxy)-7-((1aS,6aS)-1,1a,6,6a-tetrahydrocyclopropa[a]inden-2-yl)pyridino[4,3-d]pyrimidin-4-yl)-1-(2-fluoroacryloyl)piperazin-2-yl)acetonitrile] belongs 150 nM; to `C=CC(=O)N1CCN(c2nc(OC[C@@H]3CCCN3C)nc3c(F)c(-c4cccc5c4[C@@H]4C[C@@H]4C5)ncc23)C[C@@H]1CC#N` [Example 58, 2-((S)-1-acryloyl-4-(8-fluoro-2-(((S)-1-methylpyrrolidin-2-yl)methoxy)-7-((1aR,6aR)-1,1a,6,6a-tetrahydrocyclopropa[a]inden-2-yl)pyridino[4,3-d]pyrimidin-4-yl)piperazin-2-yl)acetonitrile], 0.81 nM; to `C=C(F)C(=O)N1CCN(c2nc(OC[C@@H]3CCCN3C)nc3c(F)c(-c4cccc5c4[C@@H]4C[C@@H]4C5)ncc23)C[C@@H]1CC#N` [Example 59, 2-((S)-4-(8-fluoro-2-(((S)-1-methylpyrrolidin-2-yl)methoxy)-7-((1aR,6aR)-1,1a,6,6a-tetrahydrocyclopropa[a]inden-2-yl)pyridino[4,3-d]pyrimidin-4-yl)-1-(2-fluoroacryloyl)piperazin-2-yl)acetonitrile], 140 nM. In turn, `C=CC(=O)N1CCN(c2nc(OC[C@@H]3CCCN3C)nc3c(F)c(-c4cccc5c4CC(C)C5)ncc23)C[C@@H]1CC#N` (stereo partly drawn) [Example 60, 2-((2S)-1-acryloyl-4-(8-fluoro-7-(2-methyl-2,3-dihydro-1H-inden-4-yl)-2-(((S)-1-methylpyrrolidin-2-yl)methoxy)pyridino[4,3-d]pyrimidin-4-yl)piperazin-2-yl)acetonitrile] came in with a concentration for half-maximal inhibition (IC50) of 70 nM. For the molecule `C=CC(=O)N1CCN(c2nc(OCC34CCCN3CCC4)nc3c(F)c(-c4cccc5c4C4CC4C5)ncc23)C[C@@H]1CC#N` (some centres unmarked) [Example 61], the IC50 came out at 0.71 nM. Same read-out and setting: to `C=C(F)C(=O)N1CCN(c2nc(OCC34CCCN3CCC4)nc3c(F)c(-c4cccc5c4C4CC4C5)ncc23)C[C@@H]1CC#N` (stereo partly drawn) [Example 62, 2-((2S)-4-(8-fluoro-2-((tetrahydro-1H-pyrrolizin-7a(5H)-yl)methoxy)-7-(1,1a,6,6a-tetrahydrocyclopropa[a]inden-2-yl)pyridino[4,3-d]pyrimidin-4-yl)-1-(2-fluoroacryloyl)piperazin-2-yl)acetonitrile] belongs 8 nM. `C=CC(=O)N1CCN(c2nc(OCC34CCCN3CCC4)nc3c(F)c(-c4cccc5c4[C@H]4C[C@H]4C5)ncc23)C[C@@H]1CC#N` [Example 63, 2-((S)-1-acryloyl-4-(8-fluoro-2-((tetrahydro-1H-pyrrolizin-7a(5H)-yl)methoxy)-7-((1aS,6aS)-1,1a,6,6a-tetrahydrocyclopropa[a]inden-2-yl)pyridino[4,3-d]pyrimidin-4-yl)piperazin-2-yl)acetonitrile] registered an IC50 of 2.2 nM.

In the case of `C=C(F)C(=O)N1CCN(c2nc(OCC34CCCN3CCC4)nc3c(F)c(-c4cccc5c4[C@H]4C[C@H]4C5)ncc23)C[C@@H]1CC#N` [Example 64, 2-((S)-4-(8-fluoro-2-((tetrahydro-1H-pyrrolizin-7a(5H)-yl)methoxy)-7-((1aS,6aS)-1,1a,6,6a-tetrahydrocyclopropa[a]inden-2-yl)pyridino[4,3-d]pyrimidin-4-yl)-1-(2-fluoroacryloyl)piperazin-2-yl)acetonitrile], the IC50 was determined as 10 nM.

Turning to `C=CC(=O)N1CCN(c2nc(OCC34CCCN3CCC4)nc3c(F)c(-c4cccc5c4[C@@H]4C[C@@H]4C5)ncc23)C[C@@H]1CC#N` [Example 65], inhibition was half-maximal at 3.2 nM (IC50). As to `C=C(F)C(=O)N1CCN(c2nc(OCC34CCCN3CCC4)nc3c(F)c(-c4cccc5c4[C@@H]4C[C@@H]4C5)ncc23)C[C@@H]1CC#N` [Example 66, 2-((S)-4-(8-fluoro-2-((tetrahydro-1H-pyrrolizin-7a(5H)-yl)methoxy)-7-((1aR,6aR)-1,1a,6,6a-tetrahydrocyclopropa[a]inden-2-yl)pyridino[4,3-d]pyrimidin-4-yl)-1-(2-fluoroacryloyl)piperazin-2-yl)acetonitrile], half-maximal inhibition (IC50) was put at 9 nM. `C=CC(=O)N1CCN(c2nc(OC[C@@]34CCCN3C[C@H](F)C4)nc3c(F)c(-c4cccc5c4C4CC4C5)ncc23)C[C@@H]1CC#N` (some centres unmarked) [Example 67] displayed an IC50 of 0.07 nM. Molecule `C=C(F)C(=O)N1CCN(c2nc(OC[C@@]34CCCN3C[C@H](F)C4)nc3c(F)c(-c4cccc5c4C4CC4C5)ncc23)C[C@@H]1CC#N` (some centres unmarked) [Example 68] came in with an IC50 of 0.33 nM.

Regarding `C=CC(=O)N1CCN(c2nc(OC[C@@]34CCCN3C[C@H](F)C4)nc3c(F)c(-c4cccc5c4[C@H]4C[C@H]4C5)ncc23)C[C@@H]1CC#N` [Example 69], the half-inhibitory concentration (IC50) worked out at 1.8 nM. The molecule `C=C(F)C(=O)N1CCN(c2nc(OC[C@@]34CCCN3C[C@H](F)C4)nc3c(F)c(-c4cccc5c4[C@H]4C[C@H]4C5)ncc23)C[C@@H]1CC#N` [Example 70] registered an IC50 of 7 nM.

Molecule `C=CC(=O)N1CCN(c2nc(OC[C@@]34CCCN3C[C@H](F)C4)nc3c(F)c(-c4cccc5c4[C@@H]4C[C@@H]4C5)ncc23)C[C@@H]1CC#N` [Example 71] yielded an IC50 of 0.2 nM. In turn, `C=C(F)C(=O)N1CCN(c2nc(OC[C@@]34CCCN3C[C@H](F)C4)nc3c(F)c(-c4cccc5c4[C@@H]4C[C@@H]4C5)ncc23)C[C@@H]1CC#N` [Example 72] returned an IC50 of 8 nM. Consider `C=CC(=O)N1CCN(c2nc(OC[C@@H]3CCCN3C)nc3cc(-c4cccc5c4CCCC5)c(Cl)cc23)C[C@@H]1CC#N` [Example 75, 2-((S)-1-acryloyl-4-(6-chloro-2-(((S)-1-methylpyrrolidin-2-yl)methoxy)-7-(5,6,7,8-tetrahydronaphthalen-1-yl)quinazolin-4-yl)piperazin-2-yl)acetonitrile], for which the IC50 worked out at 86 nM. Molecule `C=CC(=O)N1CCN(c2nc(OC[C@@H]3CCCN3C)nc3c(F)c(-c4cccc5c4CCCC5)c(Cl)cc23)CC1` [Example 76, 1-(4-(6-chloro-8-fluoro-2-(((S)-1-methylpyrrolidin-2-yl)methoxy)-7-(5,6,7,8-tetrahydronaphthalen-1-yl)quinazolin-4-yl)piperazin-1-yl)prop-2-en-1-one] yielded an IC50 of 160 nM.
